The results in this text go back to publication PMC11053168, “Agonist-selective activation of individual G-proteins by muscarinic receptors” (Scientific Reports, 2024).

The target in one assay is T1, M3 muscarinic receptor (Homo sapiens, UniProt P20309).
T1 construct: membranes
Put plainly: [3H]NMS competition binding, membranes from CHO cells expressing M3. The conditions noted are these: competition with [3H]NMS, mean ± SD, three experiments, read-out: Binding affinity, negative logarithm of Ki (converted). The procedure:
(§1) Cells were cultured as described previously by Randakova et al.[33]. […] The medium was supplemented with 5 mM butyrate for the last 24 h of culture to increase receptor expression. Cells were washed with (phosphate-buffered saline (PBS), mechanically harvested by scraper and centrifugated 1000 × g for 5 min. Cell pellets were kept at − 80 °C.
(§2) Membranes were prepared as described previously by Randakova et al.[33]. Cells harvested from twenty 100 mm petri dishes (CHO) or 30 ml of cell suspension (Sf9) were suspended in 20 ml of ice-cold incubation medium (100 mM NaCl, 20 mM Na-HEPES, 10 mM MgCl2, pH 7.4) supplemented with 10 mM EDTA and homogenized on ice by two 30‐s strokes using a Polytron homogenizer (Ultra-Turrax; Janke & Kunkel GmbH & Co. KG, IKA-Labortechnik, Staufen, Germany) with a 30 s pause between strokes. Cell homogenates were centrifuged for 5 min at 1000×g to remove whole cells and cell nuclei. The resulting supernatants were centrifuged for 30 min at 30,000×g. Pellets were suspended in a fresh incubation medium, incubated on ice for 30 min, and centrifuged again. The resulting membrane pellets were kept at − 80 °C until assayed within 10 weeks.
(§3) Non-specific binding was determined in the presence of 10 μM unlabelled atropine. Incubations were terminated by filtration through filtration plates multiscreen 96 well Harvest (Merck Millipore) using a Brandel cell harvester (Brandel, Gaithersburg, MD, USA). Filtration plates were dried in a microwave oven, and then 40 μl of liquid scintillator Rotiscint eco plus (Roth) was added. The filtration plates were counted in the Microbeta scintillation counter (PerkinElmer). […] The inhibition constant KI was calculated according to Eq. (2).
(§4) Inhibition constants KI were calculated according to Eq. (2).2 KI=IC50/1+D/KD where IC50 is calculated according to Eq.

In the next assay the target is T2, M4 muscarinic receptor (Homo sapiens, UniProt P08173).
T2 construct: membranes
T2 sequence (P08173 1-479): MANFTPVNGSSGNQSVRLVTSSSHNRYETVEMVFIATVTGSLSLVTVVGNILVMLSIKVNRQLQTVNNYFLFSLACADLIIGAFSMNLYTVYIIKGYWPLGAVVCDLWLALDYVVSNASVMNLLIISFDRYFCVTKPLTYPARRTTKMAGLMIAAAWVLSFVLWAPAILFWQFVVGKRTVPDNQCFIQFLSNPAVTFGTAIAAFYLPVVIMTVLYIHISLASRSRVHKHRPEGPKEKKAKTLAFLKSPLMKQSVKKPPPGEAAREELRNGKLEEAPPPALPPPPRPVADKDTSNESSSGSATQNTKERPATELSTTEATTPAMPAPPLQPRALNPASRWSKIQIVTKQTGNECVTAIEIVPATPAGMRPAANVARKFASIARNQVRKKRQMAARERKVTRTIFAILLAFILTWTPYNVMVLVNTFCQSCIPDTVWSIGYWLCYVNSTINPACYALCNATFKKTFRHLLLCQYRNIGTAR
Put plainly: [3H]NMS competition binding, membranes from CHO cells expressing M4. The procedure: as §1, §2, §3, §4

The target in a further assay is T3, M1 muscarinic receptor (Homo sapiens, UniProt P11229).
T3 construct: membranes
T3 sequence (P11229 1-460): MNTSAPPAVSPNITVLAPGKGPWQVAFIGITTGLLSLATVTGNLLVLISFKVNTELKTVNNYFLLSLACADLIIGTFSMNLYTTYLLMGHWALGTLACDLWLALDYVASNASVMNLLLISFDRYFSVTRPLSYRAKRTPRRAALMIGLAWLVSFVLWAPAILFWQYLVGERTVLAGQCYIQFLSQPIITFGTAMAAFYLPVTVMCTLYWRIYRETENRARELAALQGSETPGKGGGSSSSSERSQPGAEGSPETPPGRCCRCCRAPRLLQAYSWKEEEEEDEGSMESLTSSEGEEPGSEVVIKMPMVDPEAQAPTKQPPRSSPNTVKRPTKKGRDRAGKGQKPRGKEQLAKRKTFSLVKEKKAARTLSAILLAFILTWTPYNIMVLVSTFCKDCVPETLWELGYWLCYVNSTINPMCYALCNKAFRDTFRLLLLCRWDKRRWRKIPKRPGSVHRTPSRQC
As to the kind of experiment: [3H]NMS competition binding, membranes from CHO cells expressing M1. The conditions noted are these: competition with [3H]NMS, mean ± SD, three experiments, read-out: Binding affinity, negative logarithm of Ki (converted). The procedure: as §1, §2, §3, §4

Read-outs that look alike come from different tables or passages of the source.

T1 sequence (P20309 whole entry): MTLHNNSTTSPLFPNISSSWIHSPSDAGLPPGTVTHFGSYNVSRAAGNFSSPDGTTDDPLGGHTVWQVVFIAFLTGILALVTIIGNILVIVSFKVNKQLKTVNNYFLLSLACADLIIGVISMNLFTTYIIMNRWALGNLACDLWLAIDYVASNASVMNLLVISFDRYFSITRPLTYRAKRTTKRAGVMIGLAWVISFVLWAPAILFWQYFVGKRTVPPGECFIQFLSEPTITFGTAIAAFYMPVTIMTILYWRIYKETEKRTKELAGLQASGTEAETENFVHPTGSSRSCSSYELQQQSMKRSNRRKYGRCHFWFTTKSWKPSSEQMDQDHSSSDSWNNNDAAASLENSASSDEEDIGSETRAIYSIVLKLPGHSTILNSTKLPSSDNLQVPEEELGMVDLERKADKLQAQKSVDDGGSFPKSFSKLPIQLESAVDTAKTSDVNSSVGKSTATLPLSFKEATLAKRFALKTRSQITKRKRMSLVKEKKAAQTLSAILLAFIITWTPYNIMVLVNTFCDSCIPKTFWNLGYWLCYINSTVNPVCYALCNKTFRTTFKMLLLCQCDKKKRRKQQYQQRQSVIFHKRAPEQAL

Broadly, the Ki is the equilibrium dissociation constant of an inhibitor or competing ligand from its target. For the compound `c1csc(C[N+]23CCC(CC2)CC3)c1` [JB-8A], the Ki on M3 muscarinic receptor was 14.8 µM; on M4 muscarinic receptor it was 4.57 µM; on M1 muscarinic receptor, 6.92 µM.
Consider `C[N+]1(Cc2cccs2)CCOCC1` [JB-12-2], for which the Ki at M3 muscarinic receptor is 93.3 µM; at M4 muscarinic receptor it was 17 µM; at M1 muscarinic receptor it was 85.1 µM.
Turning to `COC(=O)C1=CCCN(Cc2cccs2)C1` [JB-13-1], the Ki at M3 muscarinic receptor is 355 µM; on M4 muscarinic receptor (M4, competition with [3H]NMS, mean ± SD, three experiments, read-out: Binding affinity, negative logarithm of Ki (converted)) it was 77.6 µM; at M1 muscarinic receptor, 115 µM.
